Measurements taken from US7276484B2, “Dipeptide inhibitors of β-secretase” (Elan Pharmaceuticals, Inc., priority 1999, dated 2007).
Numbered stars: 1 amine (or outer) side, 2 acyl side, 3 side chain; on linkers, the order of the positions; unused ones are H or OH. Square brackets hold non-standard residues; d marks the D form. Ends that are not written are not given here. Peptide text beside a SMILES is read from it. * marks the point of attachment. 3,5‑difluoroPhe/Sta = 3,5-difluorobenzyl statine, O=C(C[C@H](O)[C@H](Cc1cc(F)cc(F)c1)N[*:1])[*:2]; Sta = CC(C)C[C@H](N)[C@@H](O)CC(=O)O; Isovaleryl = CC(C)CC(=O)*

Experiments:
Human brain β-Secretase [1] = target: T1, Human brain β-Secretase (Homo sapiens, UniProt P56817); test: MBP-C125 enzyme inhibition assay (ELISA detection of β-secretase cleavage of MBP-C125 substrate); format: biochemical; conditions: pH 4.5, 37° C., 90 minutes, read-out: IC50 Grouping
T1 construct: Human brain β-Secretase from concentrated HiQ pool prepared Jul; from tissue; host or cells: human brain
T1 sequence (P56817 46-501): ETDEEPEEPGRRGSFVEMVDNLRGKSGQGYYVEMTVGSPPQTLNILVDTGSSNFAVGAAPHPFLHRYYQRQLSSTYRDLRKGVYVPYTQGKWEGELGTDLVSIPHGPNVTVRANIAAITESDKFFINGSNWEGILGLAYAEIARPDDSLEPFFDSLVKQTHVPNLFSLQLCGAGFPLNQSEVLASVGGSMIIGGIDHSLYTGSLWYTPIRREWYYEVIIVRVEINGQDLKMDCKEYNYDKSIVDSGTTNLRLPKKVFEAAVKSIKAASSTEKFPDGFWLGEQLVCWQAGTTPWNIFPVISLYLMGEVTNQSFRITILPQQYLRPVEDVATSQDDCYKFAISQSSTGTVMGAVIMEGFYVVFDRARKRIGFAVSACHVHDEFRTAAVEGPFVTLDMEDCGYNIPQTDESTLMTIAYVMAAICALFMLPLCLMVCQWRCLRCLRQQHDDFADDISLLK
Method: The inhibitory concentration data was obtained by use of the MBP-C125 assay, which determines the relative inhibition of β-secretase cleavage of an MPB-C125 substrate by the compounds assayed. Human brain β-Secretase from concentrated HiQ pool prepared Jul.
Inhibition data was obtained from an ELISA which uses an anti-MBP capture antibody (on precoated and blocked 96-well high binding plates) followed by incubation with diluted enzyme reaction supernatant, incubation with an anti-SW192 specific biotinylated reporter antibody and incubation with streptavidin/alkaline phosphatase. Detection was effected by a fluorescent substrate signal on cleavage by the phosphatase.
Compounds were diluted in a 1:1 dilution series to a six-point concentration curve (two wells per concentration) which took up one 96-plate row per compound tested.
Each of the test compounds was weighed out into a vial and DMSO was added to make up a 10 mM solution. To obtain a final compound concentration of 200 μM at the high point of a 6-point dilution curve, 100 μL of the 10 mM solution was added to well C1 of a 96-well V-bottom plate. Fifty μL of DMSO was added to odd wells of row C across the plate and 1:1 serial dilutions were made. 10 μL of each dilution was added to each of two wells on row C of a corresponding V-bottom plate to which 190 μL of 52 mM NaOAc/7.9% DMSO, pH 4.5 were pre-added. […] The compound concentration in the final enzyme reaction was thus 50 times less than the starting concentration. The final reaction mixture of 200 μM compound for the highest curve point was in 5% DMSO, 20 mM NaAc, 0.06% TX100, at pH 4.5. The enzyme reaction was started by warming the plates to 37° C. After 90 minutes at 37° C., 200 μL/well cold specimen diluent was added to stop the reaction and 20 μL/well was transferred to a corresponding α-MBP coated ELISA plate, containing 80 μL/well specimen diluent. […] The signal was read on a fluorescent plate reader.

β-secretase = β-secretase (Homo sapiens, UniProt P56817); test: assays with β-secretase (pepstatin remark); format: biochemical
Chain of β-secretase (P56817 46-501): as above

Human brain β-Secretase [2] = target: Human brain β-Secretase (human, UniProt P56817 46-501, limits assumed); test: cell-based or functional assay
Chain of Human brain β-Secretase (human, UniProt P56817 46-501, limits assumed) (P56817 46-501 limits assumed): as the sequence (P56817 46-501) above

Molecule	IC50 (Human brain β-Secretase [1]) [µM]	also measured
CC(C)CC(=O)N[C@H](C(=O)N[C@H](C(=O)N[C@@H](CC(C)C)[C@@H](O)CC(=O)N[C@@H](C)C(=O)N[C@@H](CC(C)C)[C@@H](O)CC(=O)O)C(C)C)C(C)C [pepstatin] (Isovaleryl-VV[Sta]A[Sta]-OH)	–	inhibitory activity in assays with β-secretase (β-secretase): no inhibitory activity
2-carboxy-diphenylether coupled with the peptide 3,5-difluoroPhe/Sta-Val-Ala-Glu-Phe [Example 29]	< 10	–
glutaric acid piperidine amide coupled with the derivatized Sta-Val-Ala-Glu-Phe pentapeptide [Example 33]	10 to 99	–
{2‑carboxy‑diphenylether}-[3,5‑difluoroPhe/Sta]VAEF [Example 29: 2-carboxy-diphenylether coupled with the peptide 3,5-difluoroPhe/Sta-Val-Ala-Glu-Phe]	–	IC50 Grouping (MBP-C125 enzyme inhibition assay, ELISA read-out) (Human brain β-Secretase [2]): < 10 µM

More lines, main results first:

IC50 (Human brain β-Secretase [1]) [µM]	Molecule	also measured
10 to 99	geminal dimethyl glutaric dimethylamide group coupled to the derivatized Sta-Val-Ala-Glu-Phe pentapeptide [Example 32]	–
< 10	CCCN(CCC)C(=O)c1cccc(CNC(Cc2cc(F)cc(F)c2)C(O)CC(=O)NC(C(=O)NC2CC(C(=O)O)CC(C(=O)O)C2)C(C)C)c1 (stereo not drawn) [Example 54, 3-N,N-di-n-propyl-carboxamidobenzyl-difluorophenylstatine-Val-1-amino-3,5-cis,cis-cyclohexyldicarboxylic acid]	–
< 10	COC(=O)c1cccc(C(=O)N[C@@H](Cc2cc(F)cc(F)c2)[C@@H](O)CC(=O)N[C@H](C(=O)NC2CC(C(=O)O)C[C@H](C(=O)O)C2)C(C)C)c1 (some centres unmarked) [Example 39]	–
10 to 99	4-carboxycinnoline coupled to the 3,5-difluoroPhe/Sta-Val-Ala-Glu-Phe [Example 44]	–
